# Experimental data as given in patent publication US7211601B2, “Pharmaceutically active pyrrolidine derivatives” (Applied Research Systems Ars Holding N.V., priority 2000, dated 2007).
# Tests used:
# hOT-R [1] = biological target: T1, hOT-R (Homo sapiens, UniProt P30559); assay: In vitro binding assay (SPA), competition with [125I]-OVTA on membranes from HEK293EBNA cells expressing the hOT receptor; parameters: expressed in transfected cells; host or cells: HEK293EBNA; details: 0.2 nM [125I]-OVTA, read-out: Binding affinity human OT-R IC50
# T1 sequence (P30559 1-389): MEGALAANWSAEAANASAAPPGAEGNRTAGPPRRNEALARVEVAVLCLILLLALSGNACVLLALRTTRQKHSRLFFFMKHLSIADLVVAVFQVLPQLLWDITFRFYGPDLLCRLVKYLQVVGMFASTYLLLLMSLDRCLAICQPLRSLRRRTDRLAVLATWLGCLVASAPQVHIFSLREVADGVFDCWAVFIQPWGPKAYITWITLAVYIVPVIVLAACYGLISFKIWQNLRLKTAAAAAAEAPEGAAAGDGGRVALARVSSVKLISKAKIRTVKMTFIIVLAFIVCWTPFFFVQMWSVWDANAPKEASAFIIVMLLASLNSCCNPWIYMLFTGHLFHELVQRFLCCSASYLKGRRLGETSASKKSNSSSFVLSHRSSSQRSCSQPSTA
# Experimental: a) In Vitro Binding Assay (SPA)
# Membranes from HEK293EBNA cells expressing the hOT receptor were resuspended in buffer containing 50 mM Tris-HCl, pH 7.4,5 mM MgCl2 and 0.1% BSA (w/v). The membranes (2–4 μg) were mixed with 0.1 mg wheat-germ aglutinin (WGA) SPA bead (type A) and increasing concentrations of [^125I]-OVTA (for saturation binding experiments) or 0.2 nM [^125I]-OVTA (for competition binding experiments). Non specific binding was deter-mined in the presence of 1 μM Oxytocin. The total assay volume was 100 μl. The plates were incubated at room temperature for 30 min and counted on a Mibrobeta plate counter. The competition binding data were analysed using the iterative, nonlinear, curve-fitting program, Prism.
# The binding affinities to the oxytocin receptor of the pyrrolidine derivatives claimed in the formula I were assessed using the above described in vitro biological assay. The values refer to the binding capacity of the example compounds according to formula I to the Oxytocin receptor. From the values shown in Table 1 it can be derived that said test compounds according to formula I do show a significant binding to the Oxytocin receptor.
# hOT-R [2] = biological target: T1, hOT-R; assay: Functional assay No. 1: inhibition of oxytocin-induced Ca2+-mobilization by FLIPR; format: cell-based; parameters: expressed in transfected cells; host or cells: HEK cells (CHO cells also mentioned); details: oxytocin-induced intracellular Ca2+ mobilization, read-out: Inhibition of Ca^2+ mobilization, hOT-R IC50
# Experimental: c) Functional Assay No. 1: Inhibition of Ca^2+-Mobilization by FLIPR
# Preparing the plates: FLIPR-plates were pre-coated with PLL 10 μg/ml+0.1% gelatine for 30 min up to 2 days at 37° C. (for HEK-cells). The cells were plated out into 96-well plates (60000 cells/well).
# Labelling with fluo-4: 50 μg fluo-4 were dissolved in 20 μl pluronic acid (20% in DMSO). The dissolved fluo-4 was then diluted in 10 ml DMEM-F12 medium without FCS. The medium was removed from the plates, followed by one wash with DMEM-F12 medium. Now, 100 μl of the DMEM-F12 medium containing fluo-4 were added and the cells incubated for 1–1.5 h (CHO-cells), and 1.5–2 h (HEK-cells).
# Buffer: 145 mM NaCl, 5 mM KCl, 1 mM MgCl2, 10 mM Hepes, 10 mM Glucose, EGTA. Adjust to pH 7.4.
# Preparation of agonists and antagonists: A minimum of 80 μl/well of agonists and anta-gonists (5×) in the above buffer (1×) were prepared (96-well plates).
# The activities of the pyrrolidine derivatives according to formula I were assessed using the above described in vitro biological assay. The values refer to the capacity of the example compounds according to formula I to effectively antagonize oxytocin-induced intracellular Ca^2+-mobilization mediated by the Oxytocin receptor.
# [3] = test system: oxytocin-induced uterine contractions in the rat; assay: In vivo model for inhibition of uterine contractions (oxytocin-induced, anaesthetised DES-treated rats); details: intravenous, PEG400/saline 50:50, 5 ml/kg infusion
# Experimental: e) In Vivo Model for Inhibition of Uterine Contractions
# Non-pregnant Charles River CD(SD) BR female rats (9–10 weeks old, 200–250 g) were treated at 18 and 24 hours before the experiment with 250 μg/kg, i.p. diethylstilbestrol (DES). For the assay, the animal was anaesthetised by urethane (1.75 g/kg, i.p.) and placed on an homeothermic operating table. The trachea was isolated and cannulated with a suitable polyethylene (PE) tubing. A midline incision at the hypogastrium level was made and one uterine horn exposed, its cephalic end cannulated with a PE240 tubing and, after filling the internal cavity with 0.2 ml of sterile physiological saline, connected to a “Gemini” amplifying/recording system via a P23ID Gould Statham pressure transducer. For the i.v. route of administration of the test compounds, one jugular vein was isolated and cannulated with a PE60 tubing connected to a butterfly needle to allow the administration by a dispensing syringe. In the case of intraduodenal administration of the test compounds, the duodenum was isolated and similarly cannulated through a small incision in its wall. One carotid artery was also isolated and cannulated with PE60 catheter and connected to a suitable syringe for blood sample collection (see below). After a stabilization period, the same dose of oxytocin was repeatedly injected intravenously at 30-min intervals. […] Further injections of the same dose of oxytocin were then made for a suitable time after treatment to assess inhibitory effects of the compounds under study. The contractile response of the uterus to oxytocin was quantified by measuring the intrauterine pressure and the number of contractions. The effect of the reference and test compounds were evaluated by comparing pre- and post-treatment pressure values. In addition, at 2, 30, 90 and 210 minutes after test compound administration, a 0.5-ml blood sample was withdrawn from the cannulated carotid artery of each experimental animal. Plasma was obtained by standard laboratory procedure and the resulting samples were stored at −20° C.
# The activities of the pyrrolidine derivatives claimed in the formula I were assessed using the above described in vivo biological assay. The values refer to the capacity of the example compound according to formula I to effectively antagonize oxytocin-induced -uterine contractions in the rat.
Structure (SMILES),IC50 (hOT-R [1]) [nM],IC50 (hOT-R [2]) [nM],also measured
"CO/N=C1/C[C@@H](C(=O)NC[C@@H](O)c2ccccc2)N(C(=O)c2ccc(-c3ccccc3C)cc2)C1 [drawing 18, (2S,4Z)-N-[(2S)-2-hydroxy-2-phenylethyl]-4-(methoxyimino)-1-[(2′-methyl[1,1′-biphenyl]-4-yl)carbonyl]-2-pyrrolidinecarboxamide]",70,30,% Reduction of Utenne Contraction ([3]; dose 0.3 mg/kg): −23.8 ± 4.1%; % Reduction of Utenne Contraction ([3]; dose 1 mg/kg): −27.6 ± 4.6%; % Reduction of Utenne Contraction ([3]; dose 3 mg/kg): −50.4 ± 5.8%; % Reduction of Utenne Contraction ([3]; dose 10 mg/kg): −65.6 ± 6.4%; % Reduction of Utenne Contraction ([3]; dose 30 mg/kg): −76.5 ± 4.24%
"CO/N=C1/C[C@@H](C(=O)NCCO)N(C(=O)c2ccc(-c3ccccc3)cc2)C1 [(2S,4Z)-1-([1,1′biphenyl]-4-ylcarbonyl)-N-(2-hydroxyethyl)-4-(methoxyimino)-2-pyrrolidinecarboxamide]",,650,
"O=C(NCC(O)c1ccccc1)[C@@H]1C/C(=C/Cl)CN1C(=O)c1ccc(-c2ccccc2)cc1 (mixture of isomers) [(2S,4Z)-1-([1,1′-biphenyl]-4-ylcarbonyl)-4-(chloromethylene)-N-[(2RS)-2-hydroxy-2-phenylethyl]-2-pyrrolidinecarboxamide]",350,,
"CON=C1C[C@@H](C(=O)N[C@@H]2CCCC[C@H]2CO)N(C(=O)c2ccc(-c3ccccc3OC)cc2)C1 [Example 384, (2S,4EZ)-N-[(1R,2R)-2-(hydroxymethyl)cyclohexyl]-1-[(2′-methoxy[1,1′-biphenyl]-4-yl)carbonyl]-4-(methoxyimino)-2-pyrrolidinecarboxamide]",550,,
"CO/N=C1\C[C@@H](C(=O)NC[C@@H](O)c2ccccc2)N(C(=O)c2ccc(-c3ccccc3C)cc2)C1 [drawing 17, (2S,4E)-N-[(2S)-2-hydroxy-2-phenylethyl]-4-(methoxyimino)-1-[(2′-methyl[1,1′-biphenyl]-4-yl)carbonyl]-2-pyrrolidinecarboxamide]",130,70,
"CON=C1C[C@@H](C(=O)NCCCO)N(C(=O)c2ccc(-c3ccccc3C)cc2)C1 [Example 377, (2S,4EZ)-N-(3-hydroxypropyl)-4-(methoxyimino)-1-[(2′-methyl[1,1′-biphenyl]-4-yl)carbonyl]-2-pyrrolidinecarboxamide]",370,,
"CON=C1C[C@@H](C(=O)NCCC(N)=O)N(C(=O)c2ccc(-c3ccccc3C)cc2C)C1 [Example 410, (2S,4EZ)-N-(3-amino-3-oxopropyl)-1-[(2′,3-dimethyl[1,1′-biphenyl]-4-yl)carbonyl]-4-(methoxyimino)-2-prrolidinecarboxamide]",540,,

# Second part, led by results:
IC50 (hOT-R [1]) [nM],IC50 (hOT-R [2]) [nM],Structure (SMILES),also measured
2300,,CON=C1C[C@@H](C(=O)NC[C@@H](O)c2ccccc2)N(C(=O)c2cccc(Oc3ccccc3)c2)C1 (racemic) [Example 278],
300,,"CON=C1C[C@@H](C(=O)N2CCC(O)CC2)N(C(=O)c2ccc(-c3ccccc3C)cc2)C1 [Example 372, (3EZ,5S)-5-[(4-hydroxy-1-piperidinyl)carbonyl]-1-[(2′-methyl[1,1′-biphenyl]-4-yl)carbonyl]-3-pyrrolidinone O-methyloxime]",
630,400,"CO/N=C1/C[C@@H](c2nc3ccccc3[nH]2)N(C(=O)c2ccc(-c3ccccc3)cc2)C1 [(3Z,5S)-5-(1H-benzimidazol-2-yl)-1-([1,1′-biphenyl]-4-ylcarbonyl)-3-pyrrolidinone O-methyloxime]",
,320,"CON=C1C[C@@H](C(=O)NCC[C@@H](O)c2ccccc2)N(C(=O)c2ccc(-c3ccccc3C)cc2)C1 [Example 433, (2S,4EZ)-N-[(3R)-3-hydroxy-3-phenylpropyl]-4-(methoxyimino)-1-[(2′-methyl[1,1′-biphenyl]-4-yl)carbonyl]-2-pyrrolidinecarboxamide]",
170,,"CON=C1C[C@@H](C(=O)NC[C@@H](O)c2ccccc2)N(C(=O)c2ccc(-c3ccccc3Cl)cc2)C1 [Example 438, (2S,4EZ)-N-[(2S)-2-hydroxy-2-phenylethyl]-4-(methoxyimino)-1-{[2′-chloro[1,1′-biphenyl]-4-yl]carbonyl}-2-pyrrolidinecarboxamide]",
